Experimental findings from US7388003B2, “Δ15-D-Homosteroids with androgenic action” (Bayer Schering Pharma AG, priority 2003, dated 2008) are described below.

Experiment [1] addresses T1, Androgen Receptor (Homo sapiens, UniProt P10275).
T1 sequence (P10275 1-920): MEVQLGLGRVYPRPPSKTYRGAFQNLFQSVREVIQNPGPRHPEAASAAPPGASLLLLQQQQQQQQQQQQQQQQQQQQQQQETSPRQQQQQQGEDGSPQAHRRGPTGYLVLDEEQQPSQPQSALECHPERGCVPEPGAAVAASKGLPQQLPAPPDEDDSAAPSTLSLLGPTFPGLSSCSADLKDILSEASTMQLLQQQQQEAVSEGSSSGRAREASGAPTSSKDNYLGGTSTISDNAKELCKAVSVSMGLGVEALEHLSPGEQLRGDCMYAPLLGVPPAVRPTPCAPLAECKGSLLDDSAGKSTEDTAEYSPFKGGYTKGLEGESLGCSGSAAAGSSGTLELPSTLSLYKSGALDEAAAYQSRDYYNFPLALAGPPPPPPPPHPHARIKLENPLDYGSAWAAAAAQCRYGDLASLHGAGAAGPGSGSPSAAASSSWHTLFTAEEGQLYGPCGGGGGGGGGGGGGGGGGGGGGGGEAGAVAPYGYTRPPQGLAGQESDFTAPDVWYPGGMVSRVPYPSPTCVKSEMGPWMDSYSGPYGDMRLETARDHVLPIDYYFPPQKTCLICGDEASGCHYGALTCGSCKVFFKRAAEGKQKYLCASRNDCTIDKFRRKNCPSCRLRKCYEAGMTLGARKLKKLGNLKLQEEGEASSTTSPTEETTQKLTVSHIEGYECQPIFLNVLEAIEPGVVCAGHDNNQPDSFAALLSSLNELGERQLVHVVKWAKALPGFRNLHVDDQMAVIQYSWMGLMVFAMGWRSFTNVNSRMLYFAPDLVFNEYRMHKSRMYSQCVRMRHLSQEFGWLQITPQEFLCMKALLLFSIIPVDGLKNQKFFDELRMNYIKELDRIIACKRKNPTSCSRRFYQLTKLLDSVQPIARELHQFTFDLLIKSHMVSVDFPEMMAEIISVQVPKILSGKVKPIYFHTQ
The experiment is described as follows: Relative binding affinities (RBA) to the androgen receptor compared to testosterone and methyltrienolone. The conditions noted are these: relative binding affinity to the androgen receptor; R 1881 (Methyltrienolone) = 100.

In experiment [2] the target is T1, Androgen Receptor. Kind of experiment: Receptor binding affinity to the androgen receptor (reference DHT=100%).

`CC12CCC3C4CCC(=O)C=C4CCC3C1C=CCC2O` [Example 1, 17aβ-Hydroxy-D-homoestra-4,15-dien-3-one]: on Androgen Receptor [1], the RBA % amounted to 25%.
The same measure, in the same setting: as for `CC12CCC(=O)C=C1CCC1C2CCC2(C)C(O)CC=CC12` [Example 2, 17aβ-Hydroxy-D-homoandrost-4,15-dien-3-one], the figure is 12%.
On to `CC1CC2=CC(=O)CCC2C2CCC3(C)C(O)C=CCC3C12` [17aβ-Hydroxy-7α-methyl-D-homoestra-4,16-dien-3-one], for which the “receptor binding affinity to the androgen receptor” value at Androgen Receptor [2] came out at 2%.
In turn, `C[C@]1(O)CC[C@H]2[C@@H]3CCC4=CC(=O)CCC4=C3C=C[C@@]21C` [R 1881 (Methyltrienolone), Methyltrienolone] had an RBA % at Androgen Receptor [1] of 100%.
